Results reported in patent US20180201650A1 (BGI SHENZHEN, priority 2014, published 2018).
“Also recorded” adds a separate entry of the source.

Test system: HVA calcium channel
Format: cell-based, rat

GICCVDDTCTTHSGCL [κ-CPTx-btl05]
current after loading (pA): −62.59 pA
current before loading (pA): −391.32 pA
inhibition of HVA calcium channel currents compared with Nifedipine (in words): inhibitory effect is higher than that of Nifedipine; also recorded: higher inhibition rate on HVA calcium channel currents than Nifedipine
inhibition rate (%) (10 μM): 83.24%
